Experimental data as given in patent US20050181117A1, “Stent coating method” (Medtronic Vascular, Inc., priority 2003, published 2005).

Test: percent drug eluted over time from coated stent
Assay type: physicochemical
Settings: base coat podophyllotoxin, Cyclops-12, in THF; Cyclops-9 cap coat with THF as cap coat solvent (FIG. 6) vs acetone (FIG. 5)
Excerpt: The cap coating examples may be compatible with a variety of base coats of the present invention. In one embodiment, the cap coat provided by example 9 (e.g., Cyclops-9 in acetone) may be used with a base coat provided by example 6 (e.g., Resten-NG, PVPP, in methanol-water mix). The use of a cap coat may influence the release profile of the therapeutic agent, or drug. […] The stent is base coated with a Resten-NG, PVPP in methanol/water mixed solvent and (optionally) cap coated with a Cyclops-9 in acetone mixture.
In another embodiment, the cap coat provided by example 9 (e.g., Cyclops-9 in acetone or THF) may be used with a base coat provided by example 8 (e.g., podophyllotoxin, Cyclops-12, in THF). Depending on the solvent chosen for the cap coat (e.g., acetone or THF), a different drug release profile may be obtained. […] Thus, the drug release profile may be altered by using a different cap coat solvent.

## COc1cc([C@@H]2c3cc4c(cc3[C@H](O)[C@H]3COC(=O)[C@H]23)OCO4)cc(OC)c1OC [podophyllotoxin]
  elution rate (percent drug eluted over time): marked increase in elution rate
